Reference: the kinase profiling compilation of Christmann-Franck et al. (2016)

These compounds were tested against EPHB1 (human) (UniProt P54762) (assay: radiometric filter-binding kinase assay, Kinase HotSpot). Conditions: compound 0.5 µM; ATP 10 µM.
For `FC(F)(F)c1ccc(/C=C/c2nc(COc3ccc(CCCCn4ccnn4)cc3)co2)cc1`, the residual activity was 99.4%.
`CN[C@@H]1C[C@H]2O[C@@](C)([C@@H]1OC)n1c3ccccc3c3c4c(c5c6ccccc6n2c5c31)C(=O)NC4` gave a residual activity of 12%.
For `O=c1cc(N2CCOCC2)oc2c(-c3ccccc3)cccc12`, the residual activity was 95.9%.
Work on `COc1cc2c(Nc3ccc(Br)cc3F)ncnc2cc1OCC1CCN(C)CC1` yielded a residual activity of 27.8%.
With `N/C(=N\N=C/c1ccc(-c2cccc([N+](=O)[O-])c2)o1)N[N+](=O)[O-]` the residual activity was 107%.

These compounds were tested against PRKX (human) (UniProt P51817) in the same assay as above. Conditions: compound 0.5 µM; ATP 10 µM.
`FC(F)(F)c1ccc(/C=C/c2nc(COc3ccc(CCCCn4ccnn4)cc3)co2)cc1` gave a residual activity of 95.3%.
Work on `O=c1cc(N2CCOCC2)oc2c(-c3ccccc3)cccc12` yielded a residual activity of 101%.
Compound `COc1cc2c(Nc3ccc(Br)cc3F)ncnc2cc1OCC1CCN(C)CC1` has a residual activity of 105%.
For `N/C(=N\N=C/c1ccc(-c2cccc([N+](=O)[O-])c2)o1)N[N+](=O)[O-]`, the residual activity was 97.8%.

What follows are compounds tested against MLTK (human) (UniProt Q9NYL2) in the same assay as above. Conditions: compound 0.5 µM; ATP 10 µM.
With `FC(F)(F)c1ccc(/C=C/c2nc(COc3ccc(CCCCn4ccnn4)cc3)co2)cc1` the residual activity was 98.5%.
Work on `O=c1cc(N2CCOCC2)oc2c(-c3ccccc3)cccc12` yielded a residual activity of 94.2%.
Compound `N/C(=N\N=C/c1ccc(-c2cccc([N+](=O)[O-])c2)o1)N[N+](=O)[O-]` has a residual activity of 98%.

These compounds were tested against PDPK1 (human) (UniProt O15530) in the same assay as above. Conditions: compound 0.5 µM; ATP 10 µM.
In the case of `FC(F)(F)c1ccc(/C=C/c2nc(COc3ccc(CCCCn4ccnn4)cc3)co2)cc1`, the residual activity is reported as 104%.
Work on `CN[C@@H]1C[C@H]2O[C@@](C)([C@@H]1OC)n1c3ccccc3c3c4c(c5c6ccccc6n2c5c31)C(=O)NC4` yielded a residual activity of 4.41%.
`O=c1cc(N2CCOCC2)oc2c(-c3ccccc3)cccc12` gave a residual activity of 104%.
With `COc1cc2c(Nc3ccc(Br)cc3F)ncnc2cc1OCC1CCN(C)CC1` the residual activity was 91.3%.
For `N/C(=N\N=C/c1ccc(-c2cccc([N+](=O)[O-])c2)o1)N[N+](=O)[O-]`, the residual activity was 94.6%.

What follows are compounds tested against EPHA4 (human) (UniProt P54764) in the same assay as above. Conditions: compound 0.5 µM; ATP 10 µM.
Work on `FC(F)(F)c1ccc(/C=C/c2nc(COc3ccc(CCCCn4ccnn4)cc3)co2)cc1` yielded a residual activity of 98.8%.
`O=c1cc(N2CCOCC2)oc2c(-c3ccccc3)cccc12` gave a residual activity of 99.2%.

Each compound was assayed against CDK1 CCNA2 (human) (UniProt P06493+P20248) in the same assay as above. Conditions: compound 0.5 µM; ATP 10 µM.
For `FC(F)(F)c1ccc(/C=C/c2nc(COc3ccc(CCCCn4ccnn4)cc3)co2)cc1`, the residual activity was 92.6%.
In the case of `O=c1cc(N2CCOCC2)oc2c(-c3ccccc3)cccc12`, the residual activity is reported as 92%.
With `COc1cc2c(Nc3ccc(Br)cc3F)ncnc2cc1OCC1CCN(C)CC1` the residual activity was 100%.
`N/C(=N\N=C/c1ccc(-c2cccc([N+](=O)[O-])c2)o1)N[N+](=O)[O-]` gave a residual activity of 100%.

These compounds were tested against STK25 (human) (UniProt O00506) in the same assay as above. Conditions: compound 0.5 µM; ATP 10 µM.
Sequence of STK25 (human) (O00506 whole entry, looked up): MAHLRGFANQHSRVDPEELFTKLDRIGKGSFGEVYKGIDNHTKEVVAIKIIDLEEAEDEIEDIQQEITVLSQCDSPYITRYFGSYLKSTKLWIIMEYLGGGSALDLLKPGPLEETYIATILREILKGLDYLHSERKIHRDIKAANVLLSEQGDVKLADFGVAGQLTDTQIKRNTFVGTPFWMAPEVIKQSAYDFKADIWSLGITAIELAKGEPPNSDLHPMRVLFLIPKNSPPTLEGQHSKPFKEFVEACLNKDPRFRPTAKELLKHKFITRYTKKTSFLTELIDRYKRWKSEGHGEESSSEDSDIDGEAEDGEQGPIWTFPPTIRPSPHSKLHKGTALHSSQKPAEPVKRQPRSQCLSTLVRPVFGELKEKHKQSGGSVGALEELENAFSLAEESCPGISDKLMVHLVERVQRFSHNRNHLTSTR
`FC(F)(F)c1ccc(/C=C/c2nc(COc3ccc(CCCCn4ccnn4)cc3)co2)cc1` gave a residual activity of 91.8%.
Work on `O=c1cc(N2CCOCC2)oc2c(-c3ccccc3)cccc12` yielded a residual activity of 116%.
For `COc1cc2c(Nc3ccc(Br)cc3F)ncnc2cc1OCC1CCN(C)CC1`, the residual activity was 99%.
`N/C(=N\N=C/c1ccc(-c2cccc([N+](=O)[O-])c2)o1)N[N+](=O)[O-]` showed a residual activity of 86.3%.

What follows are compounds tested against FRK (human) (UniProt P42685) in the same assay as above. Conditions: compound 0.5 µM; ATP 10 µM.
Sequence of FRK (human) (P42685 whole entry, looked up): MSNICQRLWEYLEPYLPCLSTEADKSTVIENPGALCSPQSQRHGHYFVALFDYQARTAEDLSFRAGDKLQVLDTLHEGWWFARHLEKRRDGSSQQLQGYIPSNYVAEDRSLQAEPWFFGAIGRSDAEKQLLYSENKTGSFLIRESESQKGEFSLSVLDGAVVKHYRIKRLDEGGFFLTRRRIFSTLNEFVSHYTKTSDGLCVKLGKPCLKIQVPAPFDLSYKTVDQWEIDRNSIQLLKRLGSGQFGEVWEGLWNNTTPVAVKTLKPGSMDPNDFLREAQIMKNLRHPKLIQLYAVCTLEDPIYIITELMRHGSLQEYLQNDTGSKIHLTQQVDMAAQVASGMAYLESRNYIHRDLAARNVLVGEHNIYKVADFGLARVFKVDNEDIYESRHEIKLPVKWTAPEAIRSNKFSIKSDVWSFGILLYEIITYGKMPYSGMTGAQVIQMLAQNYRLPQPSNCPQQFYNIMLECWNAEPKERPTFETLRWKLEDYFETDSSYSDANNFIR
`FC(F)(F)c1ccc(/C=C/c2nc(COc3ccc(CCCCn4ccnn4)cc3)co2)cc1` showed a residual activity of 99%.
Work on `CN[C@@H]1C[C@H]2O[C@@](C)([C@@H]1OC)n1c3ccccc3c3c4c(c5c6ccccc6n2c5c31)C(=O)NC4` yielded a residual activity of 5.5%.
For `O=c1cc(N2CCOCC2)oc2c(-c3ccccc3)cccc12`, the residual activity was 101%.
Compound `COc1cc2c(Nc3ccc(Br)cc3F)ncnc2cc1OCC1CCN(C)CC1` has a residual activity of 79.5%.
`N/C(=N\N=C/c1ccc(-c2cccc([N+](=O)[O-])c2)o1)N[N+](=O)[O-]` showed a residual activity of 90.1%.

These compounds were tested against ROCK2 (human) (UniProt O75116) in the same assay as above. Conditions: compound 0.5 µM; ATP 10 µM.
`FC(F)(F)c1ccc(/C=C/c2nc(COc3ccc(CCCCn4ccnn4)cc3)co2)cc1` showed a residual activity of 99.7%.
`O=c1cc(N2CCOCC2)oc2c(-c3ccccc3)cccc12` showed a residual activity of 95.2%.
With `COc1cc2c(Nc3ccc(Br)cc3F)ncnc2cc1OCC1CCN(C)CC1` the residual activity was 90.7%.
`N/C(=N\N=C/c1ccc(-c2cccc([N+](=O)[O-])c2)o1)N[N+](=O)[O-]` was tested, and the residual activity was 86.3%.

What follows are compounds tested against ACVR1B (human) (UniProt P36896) in the same assay as above. Conditions: compound 0.5 µM; ATP 10 µM.
For `FC(F)(F)c1ccc(/C=C/c2nc(COc3ccc(CCCCn4ccnn4)cc3)co2)cc1`, the residual activity was 92.8%.
With `O=c1cc(N2CCOCC2)oc2c(-c3ccccc3)cccc12` the residual activity was 101%.
With `COc1cc2c(Nc3ccc(Br)cc3F)ncnc2cc1OCC1CCN(C)CC1` the residual activity was 107%.
Compound `N/C(=N\N=C/c1ccc(-c2cccc([N+](=O)[O-])c2)o1)N[N+](=O)[O-]` has a residual activity of 101%.

The compounds below were run against SRMS (human) (UniProt Q9H3Y6) in the same assay as above. Conditions: compound 0.5 µM; ATP 10 µM.
Compound `FC(F)(F)c1ccc(/C=C/c2nc(COc3ccc(CCCCn4ccnn4)cc3)co2)cc1` has a residual activity of 93.5%.
Compound `O=c1cc(N2CCOCC2)oc2c(-c3ccccc3)cccc12` has a residual activity of 103%.
With `COc1cc2c(Nc3ccc(Br)cc3F)ncnc2cc1OCC1CCN(C)CC1` the residual activity was 98.8%.
In the case of `N/C(=N\N=C/c1ccc(-c2cccc([N+](=O)[O-])c2)o1)N[N+](=O)[O-]`, the residual activity is reported as 90.2%.

The compounds below were run against STK39 (human) (UniProt Q9UEW8) in the same assay as above. Conditions: compound 0.5 µM; ATP 10 µM.
`FC(F)(F)c1ccc(/C=C/c2nc(COc3ccc(CCCCn4ccnn4)cc3)co2)cc1` showed a residual activity of 88.3%.
Work on `O=c1cc(N2CCOCC2)oc2c(-c3ccccc3)cccc12` yielded a residual activity of 78.4%.
`COc1cc2c(Nc3ccc(Br)cc3F)ncnc2cc1OCC1CCN(C)CC1` showed a residual activity of 97.4%.
Compound `N/C(=N\N=C/c1ccc(-c2cccc([N+](=O)[O-])c2)o1)N[N+](=O)[O-]` has a residual activity of 91.8%.

What follows are compounds tested against PRKCA (human) (UniProt P17252) in the same assay as above. Conditions: compound 0.5 µM; ATP 10 µM.
`FC(F)(F)c1ccc(/C=C/c2nc(COc3ccc(CCCCn4ccnn4)cc3)co2)cc1` gave a residual activity of 111%.
With `O=c1cc(N2CCOCC2)oc2c(-c3ccccc3)cccc12` the residual activity was 97.5%.
For `COc1cc2c(Nc3ccc(Br)cc3F)ncnc2cc1OCC1CCN(C)CC1`, the residual activity was 97.1%.
In the case of `N/C(=N\N=C/c1ccc(-c2cccc([N+](=O)[O-])c2)o1)N[N+](=O)[O-]`, the residual activity is reported as 115%.

Each compound was assayed against CDK9 CCNK (human) (UniProt O75909+P50750) in the same assay as above. Conditions: compound 0.5 µM; ATP 10 µM.
Sequence of CDK9 CCNK (human) (O75909 whole entry, looked up): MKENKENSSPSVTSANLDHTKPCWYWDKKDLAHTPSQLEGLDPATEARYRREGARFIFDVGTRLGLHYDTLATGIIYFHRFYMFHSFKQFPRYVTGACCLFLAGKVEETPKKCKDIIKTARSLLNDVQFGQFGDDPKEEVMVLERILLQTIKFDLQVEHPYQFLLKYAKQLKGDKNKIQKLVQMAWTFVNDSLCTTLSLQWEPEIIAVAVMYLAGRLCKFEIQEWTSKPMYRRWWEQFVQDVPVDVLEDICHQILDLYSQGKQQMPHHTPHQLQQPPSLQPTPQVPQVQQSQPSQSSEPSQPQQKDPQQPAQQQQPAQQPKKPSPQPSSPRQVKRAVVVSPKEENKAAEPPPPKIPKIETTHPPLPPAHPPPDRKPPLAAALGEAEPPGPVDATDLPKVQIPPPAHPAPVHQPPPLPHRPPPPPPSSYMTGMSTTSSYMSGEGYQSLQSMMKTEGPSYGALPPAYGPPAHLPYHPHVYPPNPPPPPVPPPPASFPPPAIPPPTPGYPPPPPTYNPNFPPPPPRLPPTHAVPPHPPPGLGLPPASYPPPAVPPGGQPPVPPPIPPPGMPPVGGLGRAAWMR
Sequence of CDK9 CCNK (human) (P50750 whole entry, looked up): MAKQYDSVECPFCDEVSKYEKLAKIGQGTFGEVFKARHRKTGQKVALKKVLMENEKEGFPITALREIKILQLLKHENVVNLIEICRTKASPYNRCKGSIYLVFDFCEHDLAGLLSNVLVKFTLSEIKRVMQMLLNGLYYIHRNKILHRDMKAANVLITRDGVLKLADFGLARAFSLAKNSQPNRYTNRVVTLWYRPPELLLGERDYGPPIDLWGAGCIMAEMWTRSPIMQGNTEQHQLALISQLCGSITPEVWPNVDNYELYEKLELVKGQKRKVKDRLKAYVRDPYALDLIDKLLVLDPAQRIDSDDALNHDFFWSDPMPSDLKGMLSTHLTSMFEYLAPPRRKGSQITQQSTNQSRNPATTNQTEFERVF
`FC(F)(F)c1ccc(/C=C/c2nc(COc3ccc(CCCCn4ccnn4)cc3)co2)cc1` showed a residual activity of 105%.
`CN[C@@H]1C[C@H]2O[C@@](C)([C@@H]1OC)n1c3ccccc3c3c4c(c5c6ccccc6n2c5c31)C(=O)NC4` was tested, and the residual activity was 9.24%.
Work on `O=c1cc(N2CCOCC2)oc2c(-c3ccccc3)cccc12` yielded a residual activity of 95.9%.
In the case of `N/C(=N\N=C/c1ccc(-c2cccc([N+](=O)[O-])c2)o1)N[N+](=O)[O-]`, the residual activity is reported as 95.7%.

These compounds were tested against GRK4 (human) (UniProt P32298) in the same assay as above. Conditions: compound 0.5 µM; ATP 10 µM.
With `FC(F)(F)c1ccc(/C=C/c2nc(COc3ccc(CCCCn4ccnn4)cc3)co2)cc1` the residual activity was 102%.
`O=c1cc(N2CCOCC2)oc2c(-c3ccccc3)cccc12` gave a residual activity of 96.5%.
`COc1cc2c(Nc3ccc(Br)cc3F)ncnc2cc1OCC1CCN(C)CC1` was tested, and the residual activity was 102%.
`N/C(=N\N=C/c1ccc(-c2cccc([N+](=O)[O-])c2)o1)N[N+](=O)[O-]` was tested, and the residual activity was 95.5%.

What follows are compounds tested against PTK2 (human) (UniProt Q05397) in the same assay as above. Conditions: compound 0.5 µM; ATP 10 µM.
Work on `FC(F)(F)c1ccc(/C=C/c2nc(COc3ccc(CCCCn4ccnn4)cc3)co2)cc1` yielded a residual activity of 101%.
For `O=c1cc(N2CCOCC2)oc2c(-c3ccccc3)cccc12`, the residual activity was 103%.
`COc1cc2c(Nc3ccc(Br)cc3F)ncnc2cc1OCC1CCN(C)CC1` was tested, and the residual activity was 100%.

Each compound was assayed against FGFR1 (human) (UniProt P11362) in the same assay as above. Conditions: compound 0.5 µM; ATP 10 µM.
Sequence of FGFR1 (human) (P11362 whole entry, looked up): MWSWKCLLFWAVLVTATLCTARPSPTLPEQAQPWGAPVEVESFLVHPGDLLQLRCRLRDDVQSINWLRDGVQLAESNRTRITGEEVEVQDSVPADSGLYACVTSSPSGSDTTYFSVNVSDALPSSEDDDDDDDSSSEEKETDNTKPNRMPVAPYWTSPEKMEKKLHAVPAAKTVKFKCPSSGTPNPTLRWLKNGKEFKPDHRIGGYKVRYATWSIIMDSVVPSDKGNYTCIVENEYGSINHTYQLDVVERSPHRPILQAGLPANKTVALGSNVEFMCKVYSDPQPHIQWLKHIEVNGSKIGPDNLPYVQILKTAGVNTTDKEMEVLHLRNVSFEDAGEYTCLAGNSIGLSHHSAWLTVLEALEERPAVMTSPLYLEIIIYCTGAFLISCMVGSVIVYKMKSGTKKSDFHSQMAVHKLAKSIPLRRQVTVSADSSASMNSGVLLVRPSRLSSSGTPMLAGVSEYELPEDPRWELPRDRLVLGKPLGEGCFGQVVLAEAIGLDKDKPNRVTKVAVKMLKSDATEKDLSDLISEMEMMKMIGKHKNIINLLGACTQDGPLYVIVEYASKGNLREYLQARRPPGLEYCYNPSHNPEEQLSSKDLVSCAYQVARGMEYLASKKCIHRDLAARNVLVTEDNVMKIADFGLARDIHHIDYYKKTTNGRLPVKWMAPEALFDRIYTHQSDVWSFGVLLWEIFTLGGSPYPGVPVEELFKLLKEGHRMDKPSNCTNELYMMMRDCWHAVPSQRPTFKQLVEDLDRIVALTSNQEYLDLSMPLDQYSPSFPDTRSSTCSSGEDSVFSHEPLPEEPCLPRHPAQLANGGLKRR
`FC(F)(F)c1ccc(/C=C/c2nc(COc3ccc(CCCCn4ccnn4)cc3)co2)cc1` showed a residual activity of 101%.
`O=c1cc(N2CCOCC2)oc2c(-c3ccccc3)cccc12` was tested, and the residual activity was 96.6%.
With `N/C(=N\N=C/c1ccc(-c2cccc([N+](=O)[O-])c2)o1)N[N+](=O)[O-]` the residual activity was 97.6%.

What follows are compounds tested against MAP2K1 (human) (UniProt Q02750) in the same assay as above. Conditions: compound 0.5 µM; ATP 10 µM.
Sequence of MAP2K1 (human) (Q02750 whole entry, looked up): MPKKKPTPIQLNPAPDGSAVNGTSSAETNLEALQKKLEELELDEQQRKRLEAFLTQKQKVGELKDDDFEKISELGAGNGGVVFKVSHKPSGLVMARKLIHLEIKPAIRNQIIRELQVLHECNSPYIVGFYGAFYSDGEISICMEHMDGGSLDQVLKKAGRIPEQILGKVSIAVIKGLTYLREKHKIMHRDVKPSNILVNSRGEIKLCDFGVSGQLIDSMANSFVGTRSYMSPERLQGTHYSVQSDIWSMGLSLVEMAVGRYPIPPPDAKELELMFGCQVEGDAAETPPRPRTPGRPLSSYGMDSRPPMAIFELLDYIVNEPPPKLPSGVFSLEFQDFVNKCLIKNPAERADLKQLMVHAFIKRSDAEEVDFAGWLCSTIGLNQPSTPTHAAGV
With `FC(F)(F)c1ccc(/C=C/c2nc(COc3ccc(CCCCn4ccnn4)cc3)co2)cc1` the residual activity was 120%.
`CN[C@@H]1C[C@H]2O[C@@](C)([C@@H]1OC)n1c3ccccc3c3c4c(c5c6ccccc6n2c5c31)C(=O)NC4` was tested, and the residual activity was 3.83%.
`O=c1cc(N2CCOCC2)oc2c(-c3ccccc3)cccc12` gave a residual activity of 88.8%.
Compound `COc1cc2c(Nc3ccc(Br)cc3F)ncnc2cc1OCC1CCN(C)CC1` has a residual activity of 105%.
Compound `N/C(=N\N=C/c1ccc(-c2cccc([N+](=O)[O-])c2)o1)N[N+](=O)[O-]` has a residual activity of 105%.

The compounds below were run against TNK2 (human) (UniProt Q07912) in the same assay as above. Conditions: compound 0.5 µM; ATP 10 µM.
Sequence of TNK2 (human) (Q07912 whole entry, looked up): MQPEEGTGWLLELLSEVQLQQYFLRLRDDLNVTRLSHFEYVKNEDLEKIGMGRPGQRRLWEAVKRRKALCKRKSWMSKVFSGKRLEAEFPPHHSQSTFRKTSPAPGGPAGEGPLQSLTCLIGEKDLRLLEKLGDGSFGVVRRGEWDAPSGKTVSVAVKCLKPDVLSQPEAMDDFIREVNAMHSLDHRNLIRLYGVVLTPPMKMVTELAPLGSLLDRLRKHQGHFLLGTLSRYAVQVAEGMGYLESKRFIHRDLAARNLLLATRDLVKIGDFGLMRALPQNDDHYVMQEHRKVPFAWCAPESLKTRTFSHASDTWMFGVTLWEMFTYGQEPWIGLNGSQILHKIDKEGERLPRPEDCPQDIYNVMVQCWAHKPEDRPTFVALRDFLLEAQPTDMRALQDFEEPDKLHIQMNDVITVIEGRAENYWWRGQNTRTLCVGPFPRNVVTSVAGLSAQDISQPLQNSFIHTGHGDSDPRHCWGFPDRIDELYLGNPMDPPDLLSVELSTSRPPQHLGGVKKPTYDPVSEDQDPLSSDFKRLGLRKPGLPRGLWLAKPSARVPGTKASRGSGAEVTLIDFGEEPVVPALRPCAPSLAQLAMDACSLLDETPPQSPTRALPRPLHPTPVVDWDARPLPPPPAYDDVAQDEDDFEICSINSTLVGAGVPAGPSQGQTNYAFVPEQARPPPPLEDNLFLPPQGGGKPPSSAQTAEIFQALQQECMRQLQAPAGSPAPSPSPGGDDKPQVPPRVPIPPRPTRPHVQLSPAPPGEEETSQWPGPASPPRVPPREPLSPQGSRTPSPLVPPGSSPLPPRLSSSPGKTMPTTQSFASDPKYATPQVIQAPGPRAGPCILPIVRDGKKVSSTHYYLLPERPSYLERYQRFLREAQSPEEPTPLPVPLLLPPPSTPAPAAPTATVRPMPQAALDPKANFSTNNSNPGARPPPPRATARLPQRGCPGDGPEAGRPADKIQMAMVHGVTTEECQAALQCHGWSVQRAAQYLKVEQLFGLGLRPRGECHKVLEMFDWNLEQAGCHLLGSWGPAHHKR
Compound `O=c1cc(N2CCOCC2)oc2c(-c3ccccc3)cccc12` has a residual activity of 88.7%.
With `COc1cc2c(Nc3ccc(Br)cc3F)ncnc2cc1OCC1CCN(C)CC1` the residual activity was 85.4%.
`N/C(=N\N=C/c1ccc(-c2cccc([N+](=O)[O-])c2)o1)N[N+](=O)[O-]` showed a residual activity of 99.9%.

What follows are compounds tested against SIK2 (human) (UniProt Q9H0K1) in the same assay as above. Conditions: compound 0.5 µM; ATP 10 µM.
`FC(F)(F)c1ccc(/C=C/c2nc(COc3ccc(CCCCn4ccnn4)cc3)co2)cc1` showed a residual activity of 103%.
With `O=c1cc(N2CCOCC2)oc2c(-c3ccccc3)cccc12` the residual activity was 96.8%.
With `COc1cc2c(Nc3ccc(Br)cc3F)ncnc2cc1OCC1CCN(C)CC1` the residual activity was 17.6%.
For `N/C(=N\N=C/c1ccc(-c2cccc([N+](=O)[O-])c2)o1)N[N+](=O)[O-]`, the residual activity was 91.6%.

Each compound was assayed against PTK2B (human) (UniProt Q14289) in the same assay as above. Conditions: compound 0.5 µM; ATP 10 µM.
`FC(F)(F)c1ccc(/C=C/c2nc(COc3ccc(CCCCn4ccnn4)cc3)co2)cc1` showed a residual activity of 103%.
With `O=c1cc(N2CCOCC2)oc2c(-c3ccccc3)cccc12` the residual activity was 107%.
Compound `COc1cc2c(Nc3ccc(Br)cc3F)ncnc2cc1OCC1CCN(C)CC1` has a residual activity of 99.5%.
